From patent US6169181A, “Compounds useful to treat retroviral infections” (Pharmacia & Upjohn Company, priority 1998, dated 2001) come the findings set out here.

The target of assay [1] is T1, HIV-1 protease (Human immunodeficiency virus type 1 group M subtype B, UniProt P04585). The assay can be described thus: biochemical. Particulars: read-out: HIV Protease FITC Assay Ki. In short, it runs like this:
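Biotinylated, FITC-labelled peptide substrate cleaved in 0.1 M sodium acetate pH 5.5, 1.0 M NaCl, 0.05% NP-40, room temperature. Filtered labelled product read by fluorescence; nonlinear least-squares fit.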

Assay [2] concerns the target T1, HIV-1 protease. The assay can be described thus: biochemical. Particulars: read-out: Protease % Inhib. In short, it runs like this:
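A substrate biotinylated at the N-terminal arginine and FITC-labelled at the C-terminal lysine was incubated with HIV-1 protease (10 μl of 0.1 μM) and compound for 1 h in the dark at room temperature. Buffer was 0.1 M sodium acetate pH 5.5, 1.0 M NaCl, 0.05% NP-40. Labelled product was separated from substrate using streptavidin beads and filtration, and the fluorescence gave percent inhibition.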

Like-named read-outs stand apart in the source and are kept apart here.

The Ki is a measure of affinity in units of concentration, obtained from inhibition or displacement. Regarding `CCCC1(CCC)CC(O)=C(C(c2cccc(NS(=O)(=O)c3ccc(C#N)cc3)c2)C2CC2)C(=O)O1` (stereo not shown) [Example 50], on HIV-1 protease [1] (Table I), the Ki was determined as 1.78 nM. The inhibition at 0.123 µM at HIV-1 protease [2] (Table I, Dose 0.123 μM) is 101%. The inhibition at 0.37 µM on HIV-1 protease [2] (Table I, Dose 0.370 μM) stood at 108%. On HIV-1 protease [2] (Table I, Dose 1.100 μM), the inhibition at 1.1 µM was determined as 113%. For the same molecule, at HIV-1 protease [2] (Table I, Dose 3.300 μM), the inhibition at 3.3 µM turned out to be 112%. For the same molecule, the inhibition at 10 µM at HIV-1 protease [2] (Table I, Dose 10.000 μM) turned out to be 101%. Moreover, the inhibition at 30 µM at HIV-1 protease [2] (Table I, Dose 30.000 μM) was 84.8%.

With `CCCC1(CCC)CC(O)=C(C(c2cccc(NS(=O)(=O)c3ccc(F)cc3)c2)C2CC2)C(=O)O1` (stereo not shown) [Example 51, 4-Fluoro-N-[3-[1-(4-hydroxy-2-oxo-6,6-dipropyl-5,6-dihydro-2H-pyran-3-yl)-cyclopropylmethyl]-phenyl]-benzenesulfonamide], the Ki at HIV-1 protease [1] (Table I) was found to be 2.66 nM. In addition, the inhibition at 0.123 µM at HIV-1 protease [2] (Table I, Dose 0.123 μM) worked out at 98.7%. On HIV-1 protease [2] (Table I, Dose 0.370 μM), the inhibition at 0.37 µM turned out to be 104%. Also, the inhibition at 1.1 µM at HIV-1 protease [2] (Table I, Dose 1.100 μM) came to 105%. Moreover, the inhibition at 3.3 µM on HIV-1 protease [2] (Table I, Dose 3.300 μM) amounted to 101%. Moreover, the inhibition at 10 µM on HIV-1 protease [2] (Table I, Dose 10.000 μM) worked out at 95.1%. For the same molecule, at HIV-1 protease [2] (Table I, Dose 30.000 μM), the inhibition at 30 µM is 79.7%.

With `CCCC1(CCc2ccccc2)CC(O)=C(C(c2cccc(NS(=O)(=O)c3ccc(C#N)cc3)c2)C2CC2)C(=O)O1` (stereo not shown) [Example 58], at HIV-1 protease [1] (Table I), the Ki is 3.8 nM. Further, the inhibition at 0.123 µM at HIV-1 protease [2] (Table I, Dose 0.123 μM) amounted to 64.9%. In addition, the inhibition at 0.37 µM on HIV-1 protease [2] (Table I, Dose 0.370 μM) was found to be 83.7%. In addition, the inhibition at 1.1 µM on HIV-1 protease [2] (Table I, Dose 1.100 μM) was found to be 94.2%. For the same molecule, the inhibition at 3.3 µM at HIV-1 protease [2] (Table I, Dose 3.300 μM) turned out to be 95.9%. The inhibition at 10 µM at HIV-1 protease [2] (Table I, Dose 10.000 μM) is 100%. In addition, the inhibition at 30 µM on HIV-1 protease [2] (Table I, Dose 30.000 μM) was 89.8%.

Take `CCCC1(CCc2ccccc2)CC(O)=C(C(c2cccc(NS(=O)(=O)c3ccc(F)cc3)c2)C2CC2)C(=O)O1` (stereo not shown) [Example 59]: the Ki on HIV-1 protease [1] (Table I) was 3.5 nM. Besides, at HIV-1 protease [2] (Table I, Dose 0.123 μM), the inhibition at 0.123 µM is 76.7%. Also, the inhibition at 0.37 µM on HIV-1 protease [2] (Table I, Dose 0.370 μM) came out at 90.5%. Besides, the inhibition at 1.1 µM at HIV-1 protease [2] (Table I, Dose 1.100 μM) came to 102%. Besides, on HIV-1 protease [2] (Table I, Dose 3.300 μM), the inhibition at 3.3 µM amounted to 99.9%. Also, the inhibition at 10 µM at HIV-1 protease [2] (Table I, Dose 10.000 μM) turned out to be 105%. Further, the inhibition at 30 µM at HIV-1 protease [2] (Table I, Dose 30.000 μM) came to 102%.

Consider `CCCC1(CCc2ccccc2)CC(O)=C(C(c2cccc(NS(=O)(=O)c3cccc4cccnc34)c2)C2CC2)C(=O)O1` (stereo not shown) [Example 60, N-[3-[1-(4-Hydroxy-2-oxo-6-phenethyl-6-propyl-5,6-dihydro-2H-pyran-3-yl)-cyclopropylmethyl]-phenyl]-8-quinolinesulfonamide], for which the Ki on HIV-1 protease [1] (Table I) was 0.95 nM. Besides, the inhibition at 0.123 µM on HIV-1 protease [2] (Table I, Dose 0.123 μM) is 73%. For the same molecule, the inhibition at 0.37 µM at HIV-1 protease [2] (Table I, Dose 0.370 μM) was 94.3%. Further, on HIV-1 protease [2] (Table I, Dose 1.100 μM), the inhibition at 1.1 µM came to 101%. Also, the inhibition at 3.3 µM at HIV-1 protease [2] (Table I, Dose 3.300 μM) was 101%. Further, at HIV-1 protease [2] (Table I, Dose 10.000 μM), the inhibition at 10 µM came to 106%. The inhibition at 30 µM on HIV-1 protease [2] (Table I, Dose 30.000 μM) was determined as 107%.

Take `CCCC1(CCc2ccccc2)CC(O)=C(C(c2cccc(NS(=O)(=O)c3cn(C)cn3)c2)C2CC2)C(=O)O1` (stereo not shown) [Example 61]: the Ki at HIV-1 protease [1] (Table I) turned out to be 0.71 nM. Further, on HIV-1 protease [2] (Table I, Dose 0.123 μM), the inhibition at 0.123 µM amounted to 86.8%. Moreover, the inhibition at 0.37 µM on HIV-1 protease [2] (Table I, Dose 0.370 μM) turned out to be 95.5%. Besides, at HIV-1 protease [2] (Table I, Dose 1.100 μM), the inhibition at 1.1 µM came to 103%. For the same molecule, at HIV-1 protease [2] (Table I, Dose 3.300 μM), the inhibition at 3.3 µM came to 103%. Besides, on HIV-1 protease [2] (Table I, Dose 10.000 μM), the inhibition at 10 µM was found to be 106%. Moreover, the inhibition at 30 µM at HIV-1 protease [2] (Table I, Dose 30.000 μM) stood at 104%.

With `Cn1cnc(S(=O)(=O)Nc2cccc(C(C3=C(O)CC(CCc4ccccc4)(CCc4ccccc4)OC3=O)C3CC3)c2)c1` (stereo not shown) [Example 62], the Ki at HIV-1 protease [1] (Table I) stood at 0.8 nM. In addition, the inhibition at 0.123 µM at HIV-1 protease [2] (Table I, Dose 0.123 μM) is 76.2%. Moreover, the inhibition at 0.37 µM at HIV-1 protease [2] (Table I, Dose 0.370 μM) came out at 85.2%. At HIV-1 protease [2] (Table I, Dose 1.100 μM), the inhibition at 1.1 µM came out at 85.3%. For the same molecule, the inhibition at 3.3 µM at HIV-1 protease [2] (Table I, Dose 3.300 μM) worked out at 78.7%. On HIV-1 protease [2] (Table I, Dose 10.000 μM), the inhibition at 10 µM was 79.7%. At HIV-1 protease [2] (Table I, Dose 30.000 μM), the inhibition at 30 µM is 79.4%.

As to `CCCC1(CCc2ccccc2)CC(O)=C(C(CC)c2cccc(NS(=O)(=O)c3ccc(F)cc3)c2)C(=O)O1` (stereo not shown) [Example 93A, 4-Fluoro-N-[3-[1-(4-hydroxy-2-oxo-6-phenethyl-6-propyl-5,6-dihydro-2H-pyran-3-yl)-propyl]-phenyl]-benzenesulfonamide], on HIV-1 protease [1], the inhibition constant (Ki) came out at 6.06 nM. Further, on HIV-1 protease [2], the inhibition at 0.123 µM is 59.5%, the inhibition at 0.37 µM stood at 90.4%, the inhibition at 1.1 µM is 104% and the inhibition at 3.3 µM worked out at 109%. Moreover, at HIV-1 protease [2], the inhibition at 10 µM worked out at 109% and the inhibition at 30 µM is 96.6%.

Consider `O=c1oc(C(CC2CC2)CC2CC2)cc(O)c1C(c1cccc(NS(=O)(=O)c2ccc(F)cc2)c1)C1CC1` (stereo not shown) [Example 94, N-(3-{Cyclopropyl-[6-(2-cyclopropyl-1-cyclopropylmethyl-ethyl)-4-hydroxy-2-oxo-2H-pyran-3-yl]-methyl}-phenyl)-4-fluoro-benzenesulfonamide], for which, at HIV-1 protease [1], the Ki came out at 16.4 nM. Further, at HIV-1 protease [2], the inhibition at 0.123 µM worked out at 75.8%, the inhibition at 0.37 µM was 107%, the inhibition at 1.1 µM stood at 107% and the inhibition at 3.3 µM amounted to 105%. For the same molecule, at HIV-1 protease [2], the inhibition at 10 µM came out at 109% and the inhibition at 30 µM stood at 111%.

Consider `Cn1cnc(S(=O)(=O)Nc2cccc(C(c3c(O)cc(C(CC4CC4)CC4CC4)oc3=O)C3CC3)c2)c1` (stereo not shown) [Example 97, N-(3-{Cyclopropyl-[6-(2-cyclopropyl-1-cyclopropylmethyl-ethyl)-4-hydroxy-2-oxo-2H-pyran-3-yl]-methyl}-phenyl)-1-methyl-1H-imidazole-4-sulfonamide], for which, at HIV-1 protease [1], the Ki amounted to 1 nM. On HIV-1 protease [2], the inhibition at 0.123 µM was determined as 105%, the inhibition at 0.37 µM was 106%, the inhibition at 1.1 µM turned out to be 110% and the inhibition at 3.3 µM came out at 107%. On HIV-1 protease [2], the inhibition at 10 µM came to 116% and the inhibition at 30 µM was determined as 115%.

As for `O=c1oc(C(CC2CC2)CC2CC2)cc(O)c1C(c1cccc(NS(=O)(=O)c2ccccn2)c1)C1CC1` (stereo not shown) [Example 99, N-(3-{Cyclopropyl-[6-(2-cyclopropyl-1-cyclopropylmethyl-ethyl)-4-hydroxy-2-oxo-2H-pyran-3-yl]-methyl}-phenyl)-2-pyridine-sulfonamide], the Ki on HIV-1 protease [1] (Table I) was 0.66 nM. The inhibition at 0.123 µM on HIV-1 protease [2] (Table I, Dose 0.123 μM) turned out to be 85.7%. For the same molecule, the inhibition at 0.37 µM on HIV-1 protease [2] (Table I, Dose 0.370 μM) is 102%. For the same molecule, the inhibition at 1.1 µM on HIV-1 protease [2] (Table I, Dose 1.100 μM) stood at 108%. Besides, the inhibition at 3.3 µM at HIV-1 protease [2] (Table I, Dose 3.300 μM) stood at 100%. Besides, the inhibition at 10 µM at HIV-1 protease [2] (Table I, Dose 10.000 μM) came out at 107%. Moreover, the inhibition at 30 µM at HIV-1 protease [2] (Table I, Dose 30.000 μM) came to 103%.

`Cn1ccnc1S(=O)(=O)Nc1cccc(C(c2c(O)cc(C(CC3CC3)CC3CC3)oc2=O)C2CC2)c1` (stereo not shown) [Example 100, N-(3-{Cyclopropyl-[6-(2-cyclopropyl-1-cyclopropylmethyl-ethyl)-4-hydroxy-2-oxo-2H-pyran-3-yl]-methyl}-phenyl)-1-methyl-1H-imidazole-2-sulfonamide]: the Ki at HIV-1 protease [1] (Table I) came out at 0.73 nM. Besides, the inhibition at 0.123 µM at HIV-1 protease [2] (Table I, Dose 0.123 μM) is 103%. The inhibition at 0.37 µM at HIV-1 protease [2] (Table I, Dose 0.370 μM) was 101%. Besides, the inhibition at 1.1 µM on HIV-1 protease [2] (Table I, Dose 1.100 μM) came out at 91%. For the same molecule, on HIV-1 protease [2] (Table I, Dose 3.300 μM), the inhibition at 3.3 µM turned out to be 96.5%. The inhibition at 30 µM at HIV-1 protease [2] (Table I, Dose 30.000 μM) stood at 101%. The inhibition at 100 µM at HIV-1 protease [2] (Table I, Dose 100.000 μM) is 101%.

Consider `O=c1oc(C(CC2CC2)CC2CC2)cc(O)c1C(c1cccc(NS(=O)(=O)c2nc3ccccc3[nH]2)c1)C1CC1` (stereo not shown) [Example 101, N-(3-{Cyclopropyl-[6-(2-cyclopropyl-1-cyclopropylmethyl-ethyl)-4-hydroxy-2-oxo-2H-pyran-3-yl]-methyl}-phenyl)-1H-benzo-imidazole-2-sulfonamide], for which the Ki at HIV-1 protease [1] (Table I) is 0.66 nM. Also, the inhibition at 0.123 µM at HIV-1 protease [2] (Table I, Dose 0.123 μM) was found to be 70.2%. Besides, the inhibition at 0.37 µM on HIV-1 protease [2] (Table I, Dose 0.370 μM) was determined as 84%. Moreover, the inhibition at 1.1 µM at HIV-1 protease [2] (Table I, Dose 1.100 μM) stood at 93.3%. For the same molecule, at HIV-1 protease [2] (Table I, Dose 3.300 μM), the inhibition at 3.3 µM is 97%. Further, at HIV-1 protease [2] (Table I, Dose 10.000 μM), the inhibition at 10 µM came out at 102%. Moreover, the inhibition at 30 µM on HIV-1 protease [2] (Table I, Dose 30.000 μM) came to 97.3%.
